Experimental data published in US20200231638A1, “STABILIZED ANTI-MICROBIAL PEPTIDES” (priority 2015, published 2020).
≈ marks a conversion by molar mass, not a printed value. Bridge positions count the residues as written; N and C are the ends. Square brackets hold non-standard residues; d marks the D form. Peptide text beside a SMILES is read from it. R8 = C=CCCCCCC[C@@](C)(N)C(=O)O; S5 = C=CCCC[C@](C)(N)C(=O)O; Nle = CCCC[C@H](N)C(=O)O

Columns and labels:
[1] = system: S. aureus; assay type: cell-based, Staphylococcus aureus
Summary of the method: (§1)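 Broth microdilution in anion-exchange-refined Mueller-Hinton broth; serially diluted peptide mixed with bacteria at 5×10^5 CFU/ml final inoculum. Incubated 20-24 hours at 37° C. MIC taken as lowest peptide concentration with no visible growth.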

[2] = system: P. aeruginosa; assay type: cell-based, Pseudomonas aeruginosa
Summary of the method: as §1

[3] = system: E. coli; assay type: cell-based, Escherichia coli
Summary of the method: as §1

[4] = system: S. marcescens; assay type: cell-based
Protocol: Antimicrobial Activity Assay:
The following microbroth dilution protocol was adapted to determine the minimum inhibitory concentration (MIC) of each peptide. First, Mueller-Hinton broth (MHB) was passed through an anion exchange column to remove polyanionic species and generate refined MHB. […] Briefly, bacterial cells was grown overnight in refined MHB at 37° C. and then diluted and allowed to grow again for several hours. Serial dilutions of peptide stocks in water (10 μl) were prepared using clear round-bottom polypropylene 96-well plates. Then 90 μl of bacteria in refined MHB was added to give a final inoculum of 5×10^5 CFU/ml. The plates were then covered with porous tape to reduce evaporation, and incubated for 20-24 hours at 37° C. The MIC is the minimum peptide concentration at which no visible growth was observed.

[5] = system: B. cereus; assay type: cell-based, Bacillus cereus
Summary of the method: as §1

[6] = system: human red blood cells; assay type: cell-based; conditions: for % Hemolysis at 25 μg/ml: red cells of human, 1 h
Summary of the method: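 Washed human RBCs as 1% (v/v) suspension in phosphate-buffered saline incubated 1 h at 37° C with serially diluted peptides. Hemoglobin release in supernatant measured spectrophotometrically (570 nm), % hemolysis relative to untreated and 1% Triton-X100 controls; MHC defined as concentration giving less than 1% release.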

| MIC S. aureus [1] | MIC P. aeruginosa [2] | MIC E. coli [3] | MIC S. marcescens [4] | MIC B. cereus [5] | Structure (SMILES) | hemolytic activity (in words) [6] | % Hemolysis at 25 μg/ml [6] |
| --- | --- | --- | --- | --- | --- | --- | --- |
| 3.1 µg/mL (≈ 1.21 µM) | 3.1 µg/mL (≈ 1.21 µM) | 3.1 µg/mL (≈ 1.21 µM) | >50 µg/mL | 3.1 µg/mL (≈ 1.21 µM) | CC[C@H](C)[C@H](NC(=O)CN)C(=O)NCC(=O)N[C@@H](CCCCN)C(=O)N[C@@H](Cc1ccccc1)C(=O)N[C@@H](CC(C)C)C(=O)N[C@@H](CCCCN)C(=O)N[C@]1(C)CCCCCCC=CCCC[C@@](C)(C(=O)N[C@@H](Cc2ccccc2)C(=O)N[C@H](C(=O)N[C@@H](CCCCN)C(=O)N[C@H](C(=O)N[C@@H](CC(C)C)C(=O)N[C@@H](CCCCN)C(=O)N[C@@H](CCCCN)C(N)=O)[C@@H](C)CC)C(C)C)NC(=O)[C@H](CCCCN)NC(=O)CNC(=O)[C@H](Cc2ccccc2)NC(=O)[C@H](CCCCN)NC(=O)[C@H](CCCCN)NC(=O)[C@H](C)NC1=O [PexStap 2] (H-GIGKFLK[R8]AKKFGK[S5]FVKILKK-NH2; staple 8-15; N-terminus assumed) |  |  |
|  |  | 12.5 µg/mL (≈ 4.9 µM) | >50 µg/mL | 12.5 µg/mL (≈ 4.9 µM) | CCCC[C@H](NC(=O)[C@@H](NC(=O)[C@H](CCC(=O)O)NC(=O)[C@]1(C)CCCC=CCCCCCC[C@@](C)(NC(=O)[C@H](CCCCN)NC(=O)[C@H](C)NC(=O)[C@H](C)NC(=O)[C@H](Cc2c[nH]cn2)NC(=O)[C@H](CC(C)C)NC(=O)[C@H](Cc2ccccc2)NC(=O)[C@H](CCCCN)NC(=O)CNC(=O)[C@@H](NC(=O)CN)[C@@H](C)CC)C(=O)N[C@@H](Cc2ccccc2)C(=O)N[C@@H](C)C(=O)N[C@@H](CCCCN)C(=O)N[C@@H](C)C(=O)N[C@@H](Cc2ccccc2)C(=O)N[C@@H](C(C)C)C(=O)N1)[C@@H](C)CC)C(=O)N[C@@H](CC(N)=O)C(=O)N[C@@H](CO)C(N)=O [MagStap 5] (H-GIGKFLHAAK[R8]FAKAFV[S5]EI[Nle]NS-NH2; staple 11-18; N-terminus assumed) | lowest hemolytic activity |  |
|  |  | 12.5 µg/mL (≈ 4.95 µM) | >50 µg/mL | 6.2 µg/mL (≈ 2.46 µM) | CCCC[C@H](NC(=O)[C@@H](NC(=O)[C@H](CCC(=O)O)NC(=O)[C@H](C)NC(=O)[C@]1(C)CCCC=CCCCCCC[C@@](C)(NC(=O)[C@H](C)NC(=O)[C@H](C)NC(=O)[C@H](Cc2c[nH]cn2)NC(=O)[C@H](CC(C)C)NC(=O)[C@H](Cc2ccccc2)NC(=O)[C@H](CCCCN)NC(=O)CNC(=O)[C@@H](NC(=O)CN)[C@@H](C)CC)C(=O)N[C@@H](CCCCN)C(=O)N[C@@H](Cc2ccccc2)C(=O)N[C@@H](C)C(=O)N[C@@H](CCCCN)C(=O)N[C@@H](C)C(=O)N[C@@H](Cc2ccccc2)C(=O)N1)[C@@H](C)CC)C(=O)N[C@@H](CC(N)=O)C(=O)N[C@@H](CO)C(N)=O [MagStap 4] (H-GIGKFLHAA[R8]KFAKAF[S5]AEI[Nle]NS-NH2; staple 10-17; N-terminus assumed) | highest hemolytic activity |  |
|  |  | 6.2 µg/mL (≈ 2.41 µM) | >50 µg/mL | 6.2 µg/mL (≈ 2.41 µM) | CCCC[C@H](NC(=O)[C@]1(C)CCCC=CCCCCCC[C@@](C)(NC(=O)[C@H](Cc2ccccc2)NC(=O)[C@H](CCCCN)NC(=O)[C@H](CCCCN)NC(=O)[C@H](C)NC(=O)[C@H](C)NC(=O)[C@H](Cc2c[nH]cn2)NC(=O)[C@H](CC(C)C)NC(=O)[C@H](Cc2ccccc2)NC(=O)[C@H](CCCCN)NC(=O)CNC(=O)[C@@H](NC(=O)CN)[C@@H](C)CC)C(=O)N[C@@H](CCCCN)C(=O)N[C@@H](C)C(=O)N[C@@H](Cc2ccccc2)C(=O)N[C@@H](C(C)C)C(=O)N[C@@H](C)C(=O)N[C@@H](CCC(=O)O)C(=O)N1)C(=O)N[C@@H](CC(N)=O)C(=O)N[C@@H](CO)C(N)=O [MagStap 7] (H-GIGKFLHAAKKF[R8]KAFVAE[S5][Nle]NS-NH2; staple 13-20; N-terminus assumed) |  |  |
| 3.1 µg/mL (≈ 1.24 µM) | 1.6 µg/mL (≈ 0.638 µM) | 3.1 µg/mL (≈ 1.24 µM) | >50 µg/mL | 6.3 µg/mL (≈ 2.51 µM) | CC[C@H](C)[C@H](NC(=O)CN)C(=O)NCC(=O)N[C@@H](CCCCN)C(=O)N[C@@H](Cc1ccccc1)C(=O)N[C@@H](CC(C)C)C(=O)N[C@@H](CCCCN)C(=O)N[C@@H](CCCCN)C(=O)N[C@@H](C)C(=O)N[C@@H](CCCCN)C(=O)N[C@@H](CCCCN)C(=O)N[C@]1(C)CCCCCCC=CCCC[C@@](C)(C(=O)N[C@@H](CC(C)C)C(=O)N[C@@H](CCCCN)C(=O)N[C@@H](CCCCN)C(N)=O)NC(=O)[C@H](CCCCN)NC(=O)[C@H](C(C)C)NC(=O)[C@H](Cc2ccccc2)NC(=O)[C@H](C)NC(=O)[C@H](CCCCN)NC(=O)CNC1=O [PexStap 6] (H-GIGKFLKKAKK[R8]GKAFVK[S5]LKK-NH2; staple 12-19; N-terminus assumed) |  |  |
|  |  | 3.1 µg/mL (≈ 1.25 µM) | >50 µg/mL | 3.1 µg/mL (≈ 1.25 µM) | CCCC[C@H](NC(=O)[C@@H](NC(=O)[C@]1(C)CCCC=CCCCCCC[C@@](C)(NC(=O)[C@H](CCCCN)NC(=O)[C@H](CCCCN)NC(=O)[C@H](C)NC(=O)[C@H](C)NC(=O)[C@H](Cc2c[nH]cn2)NC(=O)[C@H](CC(C)C)NC(=O)[C@H](Cc2ccccc2)NC(=O)[C@H](CCCCN)NC(=O)CNC(=O)[C@@H](NC(=O)CN)[C@@H](C)CC)C(=O)N[C@@H](C)C(=O)N[C@@H](CCCCN)C(=O)N[C@@H](C)C(=O)N[C@@H](Cc2ccccc2)C(=O)N[C@@H](C(C)C)C(=O)N[C@@H](C)C(=O)N1)[C@@H](C)CC)C(=O)N[C@@H](CC(N)=O)C(=O)N[C@@H](CO)C(N)=O [MagStap 6] (H-GIGKFLHAAKK[R8]AKAFVA[S5]I[Nle]NS-NH2; staple 12-19; N-terminus assumed) |  |  |
| 50 µg/mL | 25 µg/mL | 3.1 µg/mL |  | 25 µg/mL | CCCC[C@H](NC(=O)[C@]1(C)CCCC=CCCC[C@](C)(NC(=O)[C@H](CCC(=O)O)NC(=O)[C@H](CCCCN)NC(=O)CNC(=O)[C@H](Cc2ccccc2)NC(=O)[C@H](CCCCN)NC(=O)[C@H](CCCCN)NC(=O)[C@H](C)NC(=O)[C@H](CO)NC(=O)[C@H](Cc2c[nH]cn2)NC(=O)[C@H](CC(C)C)NC(=O)[C@H](Cc2ccccc2)NC(=O)[C@H](CCCCN)NC(=O)CNC(=O)[C@@H](NC(=O)CN)[C@@H](C)CC)C(=O)N[C@@H](C(C)C)C(=O)NCC(=O)N[C@@H](CCC(=O)O)C(=O)N1)C(=O)N[C@@H](CC(N)=O)C(=O)N[C@@H](CO)C(N)=O [Mag(i + 4)15(A15E), GIGKFLHSAKKFGKEXVGEXBNS] (H-GIGKFLHSAKKFGKE[S5]VGE[S5][Nle]NS-NH2; staple 16-20) |  | 3.8% |
| 12.5 µg/mL | 3.1 µg/mL | 1.6 µg/mL |  | 3.1 µg/mL | CCCC[C@H](NC(=O)[C@]1(C)CCCC=CCCC[C@](C)(NC(=O)[C@H](C)NC(=O)[C@H](CCCCN)NC(=O)CNC(=O)[C@H](Cc2ccccc2)NC(=O)[C@H](CCCCN)NC(=O)[C@H](CCCCN)NC(=O)[C@H](C)NC(=O)[C@H](CO)NC(=O)[C@H](Cc2c[nH]cn2)NC(=O)[C@H](CC(C)C)NC(=O)[C@H](Cc2ccccc2)NC(=O)[C@H](CCCCN)NC(=O)CNC(=O)[C@@H](NC(=O)CN)[C@@H](C)CC)C(=O)N[C@@H](C(C)C)C(=O)NCC(=O)N[C@@H](CCC(=O)O)C(=O)N1)C(=O)N[C@@H](CCCCN)C(=O)N[C@@H](CO)C(N)=O [Mag(i + 4)15(N22K), GIGKFLHSAKKFGKAXVGEXBKS] (H-GIGKFLHSAKKFGKA[S5]VGE[S5][Nle]KS-NH2; staple 16-20) |  | 12.0% |
